≈ marks a conversion by molar mass, not a printed value. Read-outs that look alike come from different tables or passages of the source.
Assays:
[1] = Determination of solubility in sodium phosphate buffers; type: physicochemical; conditions: aqueous buffer, thermodynamic from solid
Description: • Sample standard solution: About 3-5 mg test compound was accurately weighed and added into a 5 mL sample tube, 5 mL DMSO was added. Shaking and sonicating for 1 hour. • pH 2.1 sample solution: About 1 mg test compound was accurately weighed and added into a 1 mL sample tube, 1 mL pH 2.1 sodium phosphate buffer was added. Shaking. Adding test compound to the solution, if the solution is visually clear, till there is obvious insoluble in the solution. Sonicating for 1 hour. • pH 7.4 sample solution: About 1 mg test compound was accurately weighed and added into a 1 mL sample tube, 1 mL pH 7.4 sodium phosphate buffer was added. Shaking. Adding test compound to the solution, if the solution is visually clear, till there is obvious insoluble in the solution. Sonicating for 1 hour. 2. Determination • 1 mL sample standard solution was accurately pipetted into a HPLC tube. The peak area was determined by HPLC. • 0.5 mL pH 2.1 sample solution was filtered by syringe filter and was accurately pipetted into a HPLC tube, and 0.5 mL pH 2.1 sodium phosphate buffer was accurately added. Shaking. The peak area was determined by HPLC. • 0.5 mL pH 7.4 sample solution was filtered by syringe filter and was accurately pipetted into a HPLC tube, and 0.5 mL pH 7.4 sodium phosphate buffer was accurately added. Shaking. The peak area was determined by HPLC. • HPLC condition: • Instrument: Agilent 1200 • Column: Agilent SB-C18 5 u 4.6*150 mm • Mobile phase: • Phase A: Water (containing 0.1% formic acid) • Phase B: MeOH (containing 0.1% formic acid)

IDH2-R140Q = molecular target: T1, IDH2-R140Q (Homo sapiens, UniProt P48735, R140Q); assay: Fluorescent determination of IDH2-R140Q cell activity (2-HG in U87MGR140Q cells); type: cell-based; conditions: 72 hours incubation, read-out: IC50 (2-HG inhibition)
T1 construct: expressed in transfected cells
T1 sequence (P48735 40-452 R140Q): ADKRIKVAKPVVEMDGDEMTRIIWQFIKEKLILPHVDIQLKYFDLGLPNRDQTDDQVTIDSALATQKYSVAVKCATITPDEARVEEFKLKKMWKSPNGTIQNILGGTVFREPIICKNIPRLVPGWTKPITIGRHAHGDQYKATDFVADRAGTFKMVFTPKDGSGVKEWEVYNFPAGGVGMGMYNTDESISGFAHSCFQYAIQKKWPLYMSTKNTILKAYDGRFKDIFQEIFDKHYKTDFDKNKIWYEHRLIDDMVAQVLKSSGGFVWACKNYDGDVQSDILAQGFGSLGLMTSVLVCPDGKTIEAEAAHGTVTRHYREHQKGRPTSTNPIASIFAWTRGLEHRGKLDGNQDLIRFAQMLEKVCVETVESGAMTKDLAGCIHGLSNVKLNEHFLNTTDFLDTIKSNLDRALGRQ

IDH1-R132H = molecular target: T2, IDH1-R132H (Homo sapiens, UniProt O75874, R132H); assay: Fluorescent determination of IDH1-R132H cell activity (2-HG in U87MGR132H cells); type: cell-based; conditions: 2-HG inhibition in U87MGR132H cells transfected with IDH1-R132H mutant plasmid
T2 construct: expressed in transfected cells; host or cells: U87MG cells (U87MGR132H)

[2] = Metabolic stability test in liver microsomes (mouse); type: in vitro ADME; conditions: percentage of remaining compound after incubation for 30 minutes vs 0 minute; 1 μM compound; 0.5 mg/mL liver microsomes; 37° C.
Description: (§1) Male CD1 mouse liver microsomes was supplied by Research Institute for Liver Diseases (Shanghai) Co., Ltd. Male SD rat liver microsomes was supplied by BioreclamationIVT in US.
(§2) Phenacetin, glucose-6-phosphate (G-6-P), glucose-6-phosphate dehydrogenase (G-6-PD), and nicotinamide adenine dinucleotide phosphate (NADP) were supplied by Sigma-Aldrich (Missouri, USA).
(§3) 10 mM stock solution of test compound: Certain amount of test compound was weighed and dissolved in certain volume of dimethylsulfoxide (DMSO) to get the stock solution of test compound at 10 mM.
(§4) Reaction termination solution: Certain amount of phenacetin as internal standard was weighed and dissolved in acetonitrile to get the reaction termination solution at 1000 ng/mL, and stored at room temperature for use.
(§5) The stock solution of test compound was diluted to the designated concentration with organic solution (usually the mixtures of acetonitrile, methanol and water with different portions depending on the compound solution) to make the final concentration to be 1 μM and the contents of organic solvents no more than 1% (For DMSO, the controlled margin was 0.1%) in the final incubation system. 100 mM NADP, 500 mM G-6-P and 100 U/mL G-6-PDH were mixed and diluted with ultrapure water to provide the NADPH regenerating system containing 1 mM NADP, 5 mM G-6-P and 1 U/mL G-6-PD, which was pre-incubated at 37° C. water-bath for 10 min and then cooled on ice until being added into the reaction system. 20 mg/mL liver microsomes was mixed with 200 mM PBS and diluted with ultrapure water to make the concentrations of liver microsomes and PBS to be 0.5 mg/mL and 50 mM in the final incubation system, respectively. After the diluted liver microsomes was mixed with the NADPH regenerating solution, certain volumes of 100 mM EDTA and 300 mM MgCl2 (concentration of EDTA and MgCl2 in the final incubation system is 1 mM and 3 mM, respectively) were added, and the incubation system was put into 37° C. water bath. The incubation was commenced by adding the stock solution of test compound and maintained for 30 min. The incubation was terminated by adding the reaction termination solution. The 0 min sample was prepared by adding the reaction termination solution to the incubation system immediately prior to putting the system into the water bath with the addition of the stock solution of test compound. The terminated incubation mixtures were vortexed and centrifuged at 4400 rpm for 10 min, and the supernatant was collected for LC-MS/MS analysis.
(§6) The concentration of test compound was determined using LC-MS/MS method. Using the peak area ratio of the compound and the internal standard as an index, the percentage of remaining compound after incubation for 30 minutes as compared with the 0 minute sample was calculated, and the metabolic stability of the compound was evaluated.

[3] = Metabolic stability test in liver microsomes (rat); type: in vitro ADME; conditions: percentage of remaining compound after incubation for 30 minutes vs 0 minute; 1 μM compound; 0.5 mg/mL liver microsomes; 37° C.
Description: as §1, §2, §3, §4, §5, §6

[4] = pH 2.1 sodium phosphate buffer, read-out: Solubility pH 2.1
[5] = pH 7.4 sodium phosphate buffer, read-out: Solubility pH 7.4

T2 sequence (O75874 whole entry R132H): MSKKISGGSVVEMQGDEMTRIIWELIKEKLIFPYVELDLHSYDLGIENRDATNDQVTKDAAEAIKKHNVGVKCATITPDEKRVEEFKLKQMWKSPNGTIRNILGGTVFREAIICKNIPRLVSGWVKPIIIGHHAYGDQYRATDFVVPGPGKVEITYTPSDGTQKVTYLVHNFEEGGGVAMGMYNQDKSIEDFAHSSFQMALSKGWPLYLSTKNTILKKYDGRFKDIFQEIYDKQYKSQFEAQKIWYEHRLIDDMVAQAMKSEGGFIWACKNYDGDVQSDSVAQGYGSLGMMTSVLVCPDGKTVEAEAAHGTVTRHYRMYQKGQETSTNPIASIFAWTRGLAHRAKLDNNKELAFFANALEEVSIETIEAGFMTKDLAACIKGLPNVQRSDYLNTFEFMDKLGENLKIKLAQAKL

SMILES	solubility at 1 h [1, 4]	solubility at 1 h [1, 5]	IC50 (IDH2-R140Q)	IC50 (IDH1-R132H)	Mouse liver microsome stability [2]	Rat liver microsome stability [3]
C[C@@H](Nc1nc(NCc2ccccn2)nc(C2=C(F)C(O)C(F)(F)CC2)n1)C(F)(F)F (mixture of isomers) [Compound 271]	974 µg/mL	124 µg/mL				
C[C@@H](Nc1nc(N[C@H]2CCOC2)nc(C2=C(F)C(O)CCC2)n1)C(F)(F)F (mixture of isomers) [Compound 3]	> 1000 µg/mL	716 µg/mL (≈ 1830 µM)	866 nM			
CC(C)Nc1nc(N[C@H](C)C(F)(F)F)nc(C2=C(F)C(O)CC(C)(C)C2)n1 (mixture of isomers) [Compound 9]	> 1000 µg/mL	85 µg/mL (≈ 217 µM)	571 nM			
CC(C)(C)ONc1nc(Nc2ccnc(C(F)(F)F)c2)nc(C2=C(F)C(O)CCC2)n1 (centres unmarked) [Compound 71]	64 µg/mL (≈ 145 µM)	55 µg/mL (≈ 124 µM)	50 nM	3050 nM		
CC(C)Nc1nc(N[C@H](C)C(F)(F)F)nc(C2=CC(O)CC2)n1 (mixture of isomers) [Compound 125]	448 µg/mL (≈ 1350 µM)	19 µg/mL (≈ 57.3 µM)	1670 nM			
CC(C)Nc1nc(N[C@H](C)C(F)(F)F)nc(C2=C(F)C(O)C(F)(F)CC2)n1 (stereo partly drawn) [Compound 94, 2,6,6-Trifluoro-3-(4-(isopropylamino)-6-(((R)-1,1,1-trifluoropropan-2-yl)amino)-1,3,5-triazin-2-yl)cyclohex-2-en-1-ol]			131 nM	1140 nM	65.4%	82.6%
OC1CCCC(c2nc(NC3CC(F)(F)C3)nc(NC3CC(F)(F)C3)n2)=C1F (centres unmarked) [Compound 5]			93 nM	869 nM	58.6%	76.8%
C[C@H](Nc1nc(N[C@H](C)C(F)(F)F)nc(C2=C(F)C(O)CCC2)n1)C(F)(F)F (mixture of isomers) [Compound 11]			284 nM	1020 nM	80.3%	87.6%
C[C@@H](Nc1nc(N[C@H](C)C(F)(F)F)nc(C2=C(F)C(O)C3(CC2)CC3)n1)C(F)(F)F (mixture of isomers) [Compound 219]	190 µg/mL (≈ 429 µM)	60 µg/mL (≈ 135 µM)	707 nM	3230 nM		
C[C@@H](Nc1nc(C2=C(F)C(O)C(F)(F)CC2)nc(N2CC(F)(F)C2)n1)C(F)(F)F (some centres unmarked) [Compound 243]	55 µg/mL (≈ 127 µM)	< 5 µg/mL	1170 nM	> 10000 nM		
[2H]C1(O)CCCC(c2nc(N[C@H](C)C(F)(F)F)nc(N[C@H](C)C(F)(F)F)n2)=C1F (mixture of isomers) [Compound 18]			110 nM	219 nM	82.7%	91.5%
Nc1nc(N)nc(C2=C(F)C(O)C(F)(F)CC2)n1 (centres unmarked) [Compound 284, 3-(4,6-Diamino-1,3,5-triazin-2-yl)-2,6,6-trifluorocyclohex-2-en-1-ol]	789 µg/mL (≈ 3020 µM)	818 µg/mL (≈ 3130 µM)				
OC1C(F)=C(c2nc(NC3CC(F)(F)C3)nc(NC3CC(F)(F)C3)n2)CCC1F (single isomer, unassigned) [Compound 202]			383 nM	1100 nM	96.4%	94.2%
[2H]C1(O)CCCC(c2nc(NC3CC(F)(F)C3)nc(NC3CC(F)(F)C3)n2)=C1F (centres unmarked) [Compound 19]			83 nM	421 nM	66.2%	83.8%
CC(C)Nc1nc(N[C@H](C)C(F)(F)F)nc(C2=C(F)C(O)C(F)CC2)n1 (single isomer, unassigned) [Compound 95]			43 nM	317 nM	80.1%	74.8%
[2H]C1([2H])CCC(c2nc(N[C@@H](C)C(F)(F)F)nc(N[C@@H](C)C(F)(F)F)n2)=C(F)C1O (some centres unmarked) [Compound 87]			205 nM	781 nM	88.5%	97.9%
C[C@@H](Nc1nc(NC2CCC(F)(F)C2)nc(C2=C(F)C(O)CCC2)n1)C(F)(F)F (mixture of isomers) [Compound 6]			115 nM	670 nM	76.3%	70.0%
[2H]C1([2H])CCC(c2nc(NC3CC(F)(F)C3)nc(NC3CC(F)(F)C3)n2)=C(F)C1O (centres unmarked) [Compound 85]			35 nM	207 nM	64.0%	78.1%
C[C@@H](Nc1nc(NC2CC(F)(F)C2)nc(C2=C(F)C(O)C(F)(F)CC2)n1)C(F)(F)F (stereo partly drawn) [Compound 259, 3-(4-((3,3-Difluorocyclobutyl)amino)-6-(((R)-1,1,1-trifluoropropan-2-yl)amino)-1,3,5-triazin-2-yl)-2,6,6-trifluorocyclohex-2-en-1-ol]			57 nM	213 nM	86.9%	95.1%
OC1C(F)=C(c2nc(NC3CC(F)(F)C3)nc(NC3CC(F)(F)C3)n2)CCC1F (single isomer, unassigned) [Compound 201]			45 nM	109 nM	79.3%	91.6%
[2H]C1(O)C(F)=C(c2nc(N[C@H](C)C(F)(F)F)nc(N[C@H](C)C(F)(F)F)n2)CCC1(F)F (mixture of isomers) [Compound 211]			97 nM	175 nM	99.7%	98.8%
C[C@@H](Nc1nc(Nc2ccc3cccnc3c2)nc(C2=C(F)C(O)CCC2)n1)C(F)(F)F (some centres unmarked) [Compound 68]	141 µg/mL (≈ 314 µM)	< 5 µg/mL	435 nM			
OC1CCCCC(c2nc(NC3CC(F)(F)C3)nc(NC3CC(F)(F)C3)n2)=C1F (centres unmarked) [Compound 20]	570 µg/mL (≈ 1360 µM)	62 µg/mL (≈ 148 µM)	232 nM			
